The values below are quoted from earlier work in patent US7786119B2, “Drug conjugates of ion channel modulating compounds” (Cardiome Pharma Corp., priority 2004, dated 2010).

For data set [1] the following is noted: optically pure d-sotalol; SWORD study.

In the case of `CC(C)NC[C@@H](O)c1ccc(NS(C)(=O)=O)cc1` [d-sotalol], in data set [1], the “increased mortality compared to placebo” value is listed as 65%.

With `CCCCCCCN(CC)CCCC(O)c1ccc(NS(C)(=O)=O)cc1` (stereo not drawn) [ibutilide], the “risk of ventricular proarrhythmia” value (estimated) is roughly 4.4%. Moreover, the “patients requiring cardioversion for refractory ventricular arrhythmias” value (in vivo) is given as roughly 1.7%.
